# Source: ChEMBL document CHEMBL1201862, “PubChem BioAssay data set” (2004)
# The source made the active and inactive calls.
# Tests used:
# [1] = biological target: T1, Ubiquitin-conjugating enzyme E2 N (Homo sapiens, UniProt P61088); assay type: functional;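 also: Dose-response confirmation in a TR-FRET assay detecting UBC13-driven polyubiquitin chain formation, inhibition measured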
# T1 sequence (P61088 whole entry): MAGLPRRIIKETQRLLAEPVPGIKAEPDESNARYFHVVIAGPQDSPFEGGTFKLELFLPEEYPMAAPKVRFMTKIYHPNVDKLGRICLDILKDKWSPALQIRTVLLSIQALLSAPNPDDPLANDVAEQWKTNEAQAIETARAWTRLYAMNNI
# [2] = tested on: Streptococcus sp. 'group A'; assay: growth inhibition of control SK(-) GAS strain, dose response, counter-screen for streptokinase expression inhibitor project, luminescence, kanamycin, BacTiterGlo, confirmation (AID 1900); assay type: functional, organism-based
# [3] = tested on: Streptococcus; assay: Group A Streptococcus viability loss, dose response, counter-screen for streptokinase expression inhibitor project, luminescence, BacTiterGlo (AID 1915); assay type: functional, organism-based;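 also: potency for reduction of bacterial viability or growth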
# [4] = C. albicans growth with fluconazole, confirmation, fluorescence, retest (AID 2467); assay type: functional, cell-based
# [5] = NIH-3T3 fibroblast cytotoxicity, dose response, cytotoxicity control, cell-based, fluorescence, Alamar Blue, secondary assay (AID 2327); assay type: functional;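 also: NIH-3T3 mouse fibroblasts cultured with fluconazole at 8 µg/mL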
# [6] = biological target: T2, Streptokinase A (Streptococcus pyogenes serotype M1, UniProt P10520); assay: S. pyogenes streptokinase expression inhibitors, potency, dose response, plasminogen activation absorbance, OD405 (AID 1914); assay type: functional, Streptococcus pyogenes M1 GAS;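 also: secreted streptokinase activity via plasminogen activation per viability signal from cell pellet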
# T2 sequence (P10520 whole entry): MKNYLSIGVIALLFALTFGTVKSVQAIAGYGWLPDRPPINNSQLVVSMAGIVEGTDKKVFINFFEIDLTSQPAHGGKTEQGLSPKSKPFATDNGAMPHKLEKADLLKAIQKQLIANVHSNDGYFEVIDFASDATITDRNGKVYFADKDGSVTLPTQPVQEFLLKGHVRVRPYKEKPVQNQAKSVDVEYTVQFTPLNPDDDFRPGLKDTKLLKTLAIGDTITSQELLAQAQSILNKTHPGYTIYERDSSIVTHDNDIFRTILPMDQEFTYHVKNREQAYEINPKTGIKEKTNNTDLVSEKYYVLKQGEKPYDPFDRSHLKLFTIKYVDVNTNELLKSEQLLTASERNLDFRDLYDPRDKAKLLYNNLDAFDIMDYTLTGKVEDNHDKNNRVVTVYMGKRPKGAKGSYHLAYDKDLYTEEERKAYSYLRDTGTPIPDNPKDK
# [7] = P. falciparum Dd2 growth inhibitors, dose response, SYBR Green, cherry-picked samples (AID 1159567); assay type: functional, cell-based
# [8] = Shn3 3'UTR reporter inhibitors, dose response, cell-based, Clone20 osteoblasts, firefly luciferase, cherry-picked (AID 624132); assay type: functional;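 also: firefly luciferase luminescence from reporter carrying the Shn3 3'UTR in osteoblasts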
# [9] = biological target: Nonstructural protein 1 (Influenza A virus, UniProt Q194T2); assay type: functional, Influenza A virus (A/California/07/2009(H1N1))
# [10] = HepG2 cell cytotoxicity, dose response, cytotoxicity control for Shn3 inhibitor project, CellTiter-Glo, cherry-picked (AID 624134); assay type: functional, cell-based
# [11] = control 3'UTR Renilla luciferase suppression, dose response, counter-screen for Shn3 inhibitor project, cell-based, Clone20-Shn3RL, cherry-picked (AID 624133); assay type: functional
# [12] = growth suppression of beta-catenin-knockout colon cells, dose response, cell-based, HCT116, human colon tumor (AID 1045); assay type: functional;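 also: HCT116 colon tumor cells with beta catenin knocked out; cells exposed to compound for 60 hours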
# [13] = growth suppression of PTEN-null colon cells, dose response, cell-based, HCT116 PTEN knockout (AID 1047); assay type: functional;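 also: HCT116 colon tumor cells with PTEN knocked out; cells exposed to compound for 60 hours before readout; potency for loss of cell viability measured by luminescence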
# [14] = cytotoxicity toward NIH3T3 fibroblasts, dose response, counter-screen, cell-based, ATP luminescence, mouse fibroblasts (AID 2010); assay type: functional;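 also: cells exposed to compound for about 90 hours before reading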
# [15] = inhibitors of intracellular T. cruzi replication, confirmation, NIH3T3 host cells, beta-gal luminescence (AID 2044); assay type: functional, cell-based;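 also: intracellular parasites grown in NIH/3T3 mouse fibroblasts as host cells; luminescent beta-galactosidase reporter signal from transgenic T. cruzi replicating inside host cells; inhibitors lower the luminescence signal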
# [16] = biological target: FAD-linked sulfhydryl oxidase ALR (Homo sapiens, UniProt P55789); assay: inhibitors of human ALR sulfhydryl oxidase, dose response, biochemical, H2O2 detection, luminescence, cherry-pick (AID 493248)
# [17] = biological target: T3, Mannose-6-phosphate isomerase (Homo sapiens, UniProt P34949); assay: human PMI inhibitors, high substrate, primary screen, biochemical, fluorescence intensity, high mannose 6-phosphate (AID 1220)
# T3 sequence (P34949 whole entry): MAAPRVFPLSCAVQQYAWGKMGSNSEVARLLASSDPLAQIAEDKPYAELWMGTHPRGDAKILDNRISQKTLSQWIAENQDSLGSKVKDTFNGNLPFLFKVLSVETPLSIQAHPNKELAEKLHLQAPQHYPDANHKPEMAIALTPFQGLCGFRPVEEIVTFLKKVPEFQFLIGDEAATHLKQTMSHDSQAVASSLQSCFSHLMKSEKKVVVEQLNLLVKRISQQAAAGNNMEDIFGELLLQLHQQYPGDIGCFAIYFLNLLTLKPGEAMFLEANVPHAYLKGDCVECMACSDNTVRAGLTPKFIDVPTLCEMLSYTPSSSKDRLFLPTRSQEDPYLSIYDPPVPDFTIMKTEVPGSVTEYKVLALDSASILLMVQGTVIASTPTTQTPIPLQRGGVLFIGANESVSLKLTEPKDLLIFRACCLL
# [18] = biological target: Luciferin 4-monooxygenase (Photinus pyralis, UniProt P08659); assay: firefly luciferase enzyme inhibitors, dose response, biochemical, luminescence (AID 1891)
# [19] = Luminescence Cell-Based Dose Confirmation HTS to Identify Inhibitors of Platelet Dense Granule Release. [Related pubchem assays: 1663 (Primary HTS), 1678 (Summary of Project)]; assay type: functional
# [20] = biological target: T4, Rac GTPase-activating protein 1 (Homo sapiens, UniProt Q9H0H5); assay: MgcRacGAP GTPase-activating activity inhibitors, confirmation, biochemical, ADP Hunter fluorescence, primary and confirmatory (AID 624330); assay type: functional
# T4 sequence (Q9H0H5 whole entry): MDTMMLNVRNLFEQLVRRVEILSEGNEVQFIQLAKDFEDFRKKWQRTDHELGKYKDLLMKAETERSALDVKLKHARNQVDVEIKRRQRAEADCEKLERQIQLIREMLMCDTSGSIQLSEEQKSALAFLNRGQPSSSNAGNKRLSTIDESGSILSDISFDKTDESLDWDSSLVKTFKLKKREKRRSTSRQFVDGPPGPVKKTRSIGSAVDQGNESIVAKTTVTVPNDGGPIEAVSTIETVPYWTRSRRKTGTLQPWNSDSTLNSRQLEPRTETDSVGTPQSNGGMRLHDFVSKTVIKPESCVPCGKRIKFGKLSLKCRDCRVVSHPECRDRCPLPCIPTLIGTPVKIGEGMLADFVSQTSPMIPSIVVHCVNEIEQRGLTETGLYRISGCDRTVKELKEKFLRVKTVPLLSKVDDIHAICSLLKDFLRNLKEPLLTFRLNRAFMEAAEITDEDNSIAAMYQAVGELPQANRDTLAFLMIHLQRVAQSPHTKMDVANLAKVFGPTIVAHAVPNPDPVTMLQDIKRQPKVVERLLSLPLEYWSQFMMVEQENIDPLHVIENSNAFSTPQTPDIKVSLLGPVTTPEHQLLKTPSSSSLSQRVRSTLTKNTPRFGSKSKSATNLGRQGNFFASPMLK
# [21] = biological target: T5, Polyadenylate-binding protein 1 (Homo sapiens, UniProt P11940); assay: PABP1 MLLE–PAM2 binding inhibitor potency, dose response, biochemical, fluorescence polarization, FITC-PAM2 peptide (AID 602259); assay type: functional; settings: read-out: IC50_Mean
# [22] = biological target: T5, Polyadenylate-binding protein 1; assay: PABP1 MLLE–PAM2 interaction inhibitors, dose response, miRNA deadenylation inhibitor project, biochemical, fluorescence polarization, Cy5-PAM2 peptide, secondary (AID 602260); assay type: functional; settings: read-out: IC50_Mean
# [23] = Luminescence Cell-Based Dose Retest to Confirm Inhibitors of Cancer Stem Cells. [Related pubchem assays (depositor defined):AID2717, AID2721]; assay type: functional; settings: Homo sapiens
# [24] = biological target: T6, Corticotropin-releasing factor receptor 2/Corticotropin-releasing factor-binding protein (Homo sapiens, UniProt P24387+Q13324); assay: activators of CRF receptor 2 with binding protein – uHTS hits, confirmation (AID 602473); assay type: functional; settings: read-out: EC50_Mean
# T6 sequence (Q13324 whole entry): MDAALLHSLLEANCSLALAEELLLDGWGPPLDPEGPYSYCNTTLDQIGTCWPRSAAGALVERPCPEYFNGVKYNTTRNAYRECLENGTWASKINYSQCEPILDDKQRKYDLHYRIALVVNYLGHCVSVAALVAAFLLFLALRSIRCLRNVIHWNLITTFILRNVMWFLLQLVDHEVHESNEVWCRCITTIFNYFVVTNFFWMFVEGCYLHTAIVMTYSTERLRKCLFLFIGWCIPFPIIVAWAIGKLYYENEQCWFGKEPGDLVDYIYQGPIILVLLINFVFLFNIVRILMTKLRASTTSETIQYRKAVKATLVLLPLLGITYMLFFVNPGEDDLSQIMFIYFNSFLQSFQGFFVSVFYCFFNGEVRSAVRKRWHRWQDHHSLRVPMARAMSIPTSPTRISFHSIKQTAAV
# T6 sequence (P24387 whole entry): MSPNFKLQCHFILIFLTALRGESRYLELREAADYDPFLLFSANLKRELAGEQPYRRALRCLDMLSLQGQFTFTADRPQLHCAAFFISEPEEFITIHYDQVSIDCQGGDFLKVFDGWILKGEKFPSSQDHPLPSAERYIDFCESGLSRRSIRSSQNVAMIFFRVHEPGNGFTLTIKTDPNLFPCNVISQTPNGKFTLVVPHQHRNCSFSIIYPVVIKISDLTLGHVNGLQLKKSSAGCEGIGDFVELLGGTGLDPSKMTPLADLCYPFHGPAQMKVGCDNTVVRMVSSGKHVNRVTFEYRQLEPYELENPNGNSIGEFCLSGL
# [25] = biological target: T6, Corticotropin-releasing factor receptor 2/Corticotropin-releasing factor-binding protein; assay: Dose Response confirmation of uHTS hits for small molecule antagonists of the CRF-binding protein and CRF-R2 receptor complex.; assay type: functional; settings: read-out: IC50_Mean
# Chain of FAD-linked sulfhydryl oxidase ALR (P55789 whole entry): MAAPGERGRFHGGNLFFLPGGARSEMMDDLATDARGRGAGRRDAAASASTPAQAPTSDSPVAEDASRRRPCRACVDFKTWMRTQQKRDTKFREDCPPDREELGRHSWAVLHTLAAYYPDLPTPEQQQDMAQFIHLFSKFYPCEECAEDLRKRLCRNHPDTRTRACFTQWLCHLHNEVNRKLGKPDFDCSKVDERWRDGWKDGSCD
# T5 sequence (P11940 whole entry): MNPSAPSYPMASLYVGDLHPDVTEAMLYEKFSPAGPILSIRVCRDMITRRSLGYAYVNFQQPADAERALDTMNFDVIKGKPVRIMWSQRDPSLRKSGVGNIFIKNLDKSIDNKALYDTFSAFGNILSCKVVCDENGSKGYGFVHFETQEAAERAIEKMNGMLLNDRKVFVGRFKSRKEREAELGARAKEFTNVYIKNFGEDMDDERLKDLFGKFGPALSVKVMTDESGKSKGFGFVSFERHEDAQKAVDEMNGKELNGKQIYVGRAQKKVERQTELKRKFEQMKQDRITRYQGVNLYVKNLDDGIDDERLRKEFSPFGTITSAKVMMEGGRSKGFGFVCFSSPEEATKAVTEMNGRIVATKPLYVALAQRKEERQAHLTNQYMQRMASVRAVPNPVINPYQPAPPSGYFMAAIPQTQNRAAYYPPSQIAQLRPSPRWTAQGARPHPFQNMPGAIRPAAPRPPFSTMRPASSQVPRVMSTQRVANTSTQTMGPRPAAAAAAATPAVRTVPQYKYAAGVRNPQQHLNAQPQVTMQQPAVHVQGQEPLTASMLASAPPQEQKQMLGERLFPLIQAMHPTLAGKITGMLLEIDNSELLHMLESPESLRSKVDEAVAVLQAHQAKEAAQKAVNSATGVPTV
# Chain of Nonstructural protein 1 (Q194T2 whole entry): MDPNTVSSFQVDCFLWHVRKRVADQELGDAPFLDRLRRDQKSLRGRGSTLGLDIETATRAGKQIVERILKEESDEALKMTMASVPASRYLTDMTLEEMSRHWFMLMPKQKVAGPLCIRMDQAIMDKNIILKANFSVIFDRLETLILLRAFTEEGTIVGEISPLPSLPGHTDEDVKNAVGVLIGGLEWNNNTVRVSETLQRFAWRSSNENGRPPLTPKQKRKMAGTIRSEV
# Chain of Luciferin 4-monooxygenase (P08659 whole entry): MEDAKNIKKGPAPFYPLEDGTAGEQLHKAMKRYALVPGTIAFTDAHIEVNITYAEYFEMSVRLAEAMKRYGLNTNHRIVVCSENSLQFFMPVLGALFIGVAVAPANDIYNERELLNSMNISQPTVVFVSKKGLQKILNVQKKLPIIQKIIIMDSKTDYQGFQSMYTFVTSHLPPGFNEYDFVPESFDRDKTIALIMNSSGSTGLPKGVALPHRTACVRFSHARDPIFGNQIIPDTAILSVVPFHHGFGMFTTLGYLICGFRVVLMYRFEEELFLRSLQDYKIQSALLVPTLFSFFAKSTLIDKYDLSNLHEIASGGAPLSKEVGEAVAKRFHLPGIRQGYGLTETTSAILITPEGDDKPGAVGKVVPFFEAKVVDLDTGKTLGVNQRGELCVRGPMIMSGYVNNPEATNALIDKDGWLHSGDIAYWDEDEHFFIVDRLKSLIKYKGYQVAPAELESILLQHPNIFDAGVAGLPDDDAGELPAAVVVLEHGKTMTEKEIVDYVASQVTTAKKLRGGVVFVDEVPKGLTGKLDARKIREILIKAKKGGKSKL
smiles,measurement,setting,value
CCC(=O)NC(=S)NNC(=O)c1ccc([N+](=O)[O-])cc1,IC50,[1],> 20 µM (inactive)
O=C(CCS(=O)(=O)c1ccccc1)Nc1nc2cc3c(cc2s1)OCCO3,EC50,[2],79.6 µM (active)
same,EC50,[3],> 150 µM (not active)
same,EC50,[4],1.75 µM (active)
same,EC50,[5],> 160 µM (inactive)
same,EC50,[6],> 150 µM (not active)
CCC(=O)N1CC2(C1)CN(Cc1cc(F)ccc1F)[C@H](CO)c1[nH]c3cc(OC)ccc3c12,AC50,[7],5.73 µM (active)
Oc1cc(-c2ccncc2)cc2cccnc12,AC50,[8],5.4 µM (active)
same,IC50,[9],11.9 µM (active)
same,AC50,[10],10.9 µM (active)
same,AC50,[11],3.51 µM (active)
CCN1CCN(c2cc(C)c3cc(NC(=O)c4cncc(Br)c4)ccc3n2)CC1,EC50,[12],13.9 µM (active)
same,EC50,[13],16.2 µM (active)
Cc1cc(/C=N/NC(N)=S)c(C)n1-c1cccc(Cl)c1,EC50,[4],3.69 µM (active)
same,EC50,[5],> 150 µM (inconclusive)
same,EC50,[14],> 60 µM (not active)
same,EC50,[15],0.984 µM (active)
Oc1ccc(N2CCN(c3nnnn3-c3ccccc3)CC2)cc1,AC50,[16],1.9 µM (active)
CCSc1nnc(NC(=O)c2cccc(S(=O)(=O)N(C)c3ccc(C)cc3)c2)s1,AC50,[16],1.12 µM (active)
COc1ccc(N2C(=O)CSC2c2ccccc2)cc1 (configuration not stated),AC50,[16],1.9 µM (active)
CCn1c(NC(=O)c2cccs2)nc2ccccc21,EC50,[4],1.43 µM (active)
same,EC50,[5],48.8 µM (active)
CN(C(=S)Nc1ccc(Oc2ccccc2)cc1)c1ccc(O)cc1,IC50,[17],> 50 µM (not active)
CCOc1cc(CNc2ccc3[nH]c(O)nc3c2)ccc1OCC(=O)NC(C)(C)C,EC50,[18],> 112 µM (not active)
same,EC50,[19],12 µM (active)
same,IC50,[20],60.2 µM (active)
same,IC50,[17],> 50 µM (not active)
O=C(CCc1ccccc1)NNC(=O)c1ccccn1,IC50,[1],> 20 µM (inactive)
N#C/C(=N\Nc1ccc(S(=O)(=O)N2CCCCCC2)cc1)C(N)=S,EC50,[2],22.7 µM (active)
same,EC50,[3],> 150 µM (not active)
same,IC50,[21],> 66 µM (inactive)
same,IC50,[22],> 66 µM (inactive)
same,EC50,[6],> 150 µM (not active)
Cc1ccc(NCCC(=O)c2cccc([N+](=O)[O-])c2)c(C)c1,IC50,[17],> 50 µM (not active)
O=C(C1CCC1)N1CC(=O)N2[C@H](CO)[C@@H](c3ccc(C#CCc4ccccc4)cc3)[C@@H]2C1,AC50,[7],4.27 µM (active)
COc1ccc(Cl)cc1/C=N/NC(=O)c1c(-c2ccccc2)noc1C,IC50,[1],> 20 µM (inactive)
CC(C)(C)[S@@+]([O-])N1Cc2cc(C(=O)NC3CCC3)nc(-c3cccc(Br)c3)c2[C@H]1CCO,AC50,[7],5.58 µM (active)
CO[C@@H]1CN(C)C(=O)c2cc(NC(=O)C3CC3)ccc2OC[C@H](C)N(CC2CCCC2)C[C@H]1C,AC50,[7],4.45 µM (active)
CC1CN(C(S)=Nc2cccc([N+](=O)[O-])c2)CC(C)O1 (configuration not stated),EC50,[4],> 38 µM (not active)
same,EC50,[5],> 160 µM (inactive)
CCC(=O)N1CC2(CCN(Cc3ccc(Cl)cc3)CC2)c2c(n(C)c3cc(OC)ccc23)[C@@H]1CO,AC50,[7],7.31 µM (active)
CC1=C(C(N)=O)C(c2ccc(C)o2)C(C(N)=O)=C(C)N1,EC50,[4],> 38 µM (not active)
same,EC50,[5],> 160 µM (inactive)
CC(=O)N1CCN(S(=O)(=O)c2cccc(C(=O)Nc3ccccc3N3CCCC3)c2)CC1,AC50,[16],3.27 µM (active)
Nc1c(C(=O)Nc2ccccc2)c2nc3ccccc3nc2n1CCCN1CCOCC1,AC50,[23],5.96 µM (active)
same,IC50,[1],> 20 µM (inactive)
COc1ccc2c(c1)-c1nc(/N=C/c3ccc(O)cc3)sc1CC2,EC50,[24],> 53 µM (inactive)
same,IC50,[17],> 50 µM (not active)
same,IC50,[25],> 47.1 µM (inactive)
COc1ccc(NC(=O)CNC(=O)c2nn(-c3ccc(OC)cc3OC)c(=O)c3ccccc23)c(OC)c1,EC50,[4],1.55 µM (active)
same,EC50,[5],132 µM (active)
CN(C)C(=O)c1cccc(-c2ccc3c(c2)[C@H]2[C@H](CCN2C(=O)C2CC2)[C@@H](CO)N3)c1,AC50,[7],17.5 µM (active)
